What was measured:
[1] = pKa of the Im-DCH fluorophor (imidazole moiety, phenol, excited state); assay type: physicochemical
Description: This term refers to moderately basic amines that concentrate (via acid-base equilibria) in low pH organelles such as lysosomes. For Im-DCH in compounds 4 and 5, the N-alkyl imidazole moiety, with a pKa of approximately 7, serves this function. This lysosomotropic property accounts for a first important attribute of enzyme substrates based upon Im-DCH that is, concentration within lysosomes to ensure that sufficient substrate is concentrated within the lysosomes in order to yield a readily detectable fluorescent signal.
(§1) Two other advantages of the fluorophors of the present invention derive from their physical and optical properties: (1) The low pKa of the phenol in Im-DCH (pKa-5.6) allows the maximal fluoroscence (excitation at 385 nm, detection at 460 nm) to be generated at physiological pH values as well as the low pH conditions within lysosomes. The extremely low pKa of the excited state of Im-DCH (pKa*=0.5) permits strong fluorescence to be measured in solutions as acidic as pH 2-3. By proper choice of spectral parameters (excitation at 365 nm, detection at 460 nm), the fluorescence becomes essentially independent of pH, with a fluorescence intensity at pH 2 that is 60% of the maximum. Ratio measurements of fluorescence (emission at 460 nm with excitation at 365 and 385 nm) also provide an estimate of the pH at the site of enzymatic hydrolysis. (2) Shifts in both the absorption and emission spectra occur upon the hydrolysis of glycosides of Im-DCH to give free Im-DCH. This permits the detection of small amounts of enzymatic hydrolysis in the presence of a very large excess of substrate. For example, at 385 nm excitation and 460 nm detection, the ratio of fluoroescence of the hydrolysis product, Im-DCH, to intact Im-DCH-β-Gal is 620:1. […] It is then deacetylated intracellularly to generate the enzymatically active substrate.

[2] = Fluorescence properties of Im-DCH and its galactoside; assay type: physicochemical; conditions: excitation at 365 nm, detection at 460 nm
Description: as §1

[3] = biological target: T1, lysosomal β-galactosidase (Homo sapiens, UniProt P16278); assay: Loading and intracellular hydrolysis in intact human skin fibroblasts in culture (fluorescence scanning of 96-well plates, fluorescence microscopy); assay type: cell-based
T1 sequence (P16278 29-677): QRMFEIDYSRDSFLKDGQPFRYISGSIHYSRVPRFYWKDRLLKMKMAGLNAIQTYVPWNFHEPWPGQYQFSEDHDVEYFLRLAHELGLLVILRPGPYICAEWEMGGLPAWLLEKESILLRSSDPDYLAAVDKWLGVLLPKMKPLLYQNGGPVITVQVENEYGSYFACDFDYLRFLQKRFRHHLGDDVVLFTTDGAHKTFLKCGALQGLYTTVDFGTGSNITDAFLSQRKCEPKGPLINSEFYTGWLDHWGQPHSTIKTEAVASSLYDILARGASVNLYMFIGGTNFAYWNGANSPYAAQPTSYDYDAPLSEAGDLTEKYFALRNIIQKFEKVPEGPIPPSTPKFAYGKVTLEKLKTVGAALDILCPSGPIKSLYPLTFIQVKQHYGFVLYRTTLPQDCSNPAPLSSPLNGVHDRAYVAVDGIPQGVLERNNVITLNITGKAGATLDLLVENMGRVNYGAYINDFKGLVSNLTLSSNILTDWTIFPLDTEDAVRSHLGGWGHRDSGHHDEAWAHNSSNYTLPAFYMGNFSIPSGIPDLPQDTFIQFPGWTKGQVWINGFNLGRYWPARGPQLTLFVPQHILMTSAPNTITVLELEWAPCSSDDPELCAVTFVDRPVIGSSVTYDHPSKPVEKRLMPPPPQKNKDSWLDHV
Description: Loading of Im-DCH-β-Gal(OAc)., 4, into human skin fibroblasts in culture was accomplished as follows. A 20 mM solution of 4 in ethanol was injected via syringe into McCoy's medium to give a 0.1 mM final concentration of fluorogenic substrate. The substrate was further dispersed in the medium by sonication with a W140 Sonifier (two 10 second pulses on power setting of 3). After incubation for 24 hours in serum-free McCoy's medium, cells were loaded with 4 by replacement of the medium with medium containing 0.1 mM substrate. Excess Im-DCH-β-Gal(OAc) may be removed by rinsing the cells, after which the cells may be further incubated in serum free McCoy's medium. […] Excitation (Xenon lamp) through a 360 nm bandpass filter with 10% transmittance at 310 and 385 nm. Emission through a chromatic beam splitter mirror that transmits fully above 405 nm plus a long pass filter with a transmittance of 1% at 408 nm and 10% at 412 nm. Enzymatic hydrolysis was followed by scanning of the loaded cells in a 96-well tissue culture plate with a Dynatech Microfluorometer. Quantitation of product formation was achieved by comparison of the fluorescence generated within individual wells with a standard curve that was obtained from known concentrations of the fluorescent product, 3.
Decreased activity was measured in GM1 cells (12-16% of normal) by fluorescence scanning of 96-well plates. […] In contrast, normal cells are nonfluorescent 24 hours after loading, having hydrolysed their substrate and released the fluorescent product into the media.

β-galactosidase = assay: Cell-free systems that have β-galactosidase activity; assay type: biochemical
[4] = biological target: T1, lysosomal β-galactosidase; assay: In vitro hydrolysis of the fluorogenic substrate by fibroblast lysates; assay type: biochemical
Description: The ability of 5 to serve as a fluorogenic substrate was tested using fibroblasts derived from patients with GM1 gangliosidosis, a hereditary deficiency of lysosomal β-galactosidase.

Cl.N#Cc1c(O)ccc(OCCCCn2ccnc2)c1C#N [Compound 3, 2,3-dicyano-4-[4-(1-imidazolyl)-butoxy]-phenol hydrochloride salt]
pKa of the phenol [1]: 5.6
pKa of the excited state (pKa*) ([1]; excited state): 0.5
pKa of the N-alkyl imidazole moiety ([1]; lysosomotropic amine moiety of Im-DCH in compounds 4 and 5): approximately 7
fluorescence intensity at pH 2 relative to the maximum [2]: 60%

CC(=O)OC[C@H]1O[C@@H](Oc2ccc(OCCCCn3ccnc3)c(C#N)c2C#N)[C@H](OC(C)=O)[C@@H](OC(C)=O)[C@H]1OC(C)=O [Compound 4, β-D-galactopyranoside of 2,3-dicyano-4-[4-(1-imidazolyl)-butoxy]-phenol-2,3,4,6-tetra-O-acetate]
hydrolysis activity in intact GM1 cells relative to normal ([3]; GM1 cells, fluorescence scanning of 96-well plates): 12-16 % of normal
intracellular localization of fluorescence in GM1 fibroblasts ([3]; GM1 fibroblasts, fluorescence microscopy): initial perinuclear clustering followed within 24 hours by sequestration into vacuoles
specificity of the impaired hydrolysis in GM1 gangliosidosis lines ([3]; comparison with cell lines expressing other lysosomal storage disorders): specific for their lysosomal β-galactosidase deficiency
uptake by intact fibroblasts ([3]; human skin fibroblasts, 0.1 mM substrate): taken up by intact fibroblasts
fluorescence of normal cells after loading ([3]; normal fibroblasts, 24 hours after loading): nonfluorescent
activity as a substrate in cell-free systems (β-galactosidase): inactive

N#Cc1c(OCCCCn2ccnc2)ccc(O[C@@H]2O[C@H](CO)[C@H](O)[C@H](O)[C@H]2O)c1C#N [Compound 5, β-D-galactopyranoside of 2,3-dicyano-4-[4-(1-imidazolyl)-butoxy]-phenol]
hydrolysis activity in GM1 gangliosidosis lysates relative to normal ([4]; lysates from four GM1 gangliosidosis fibroblast lines): 0.3-5.3 % of normal activity
hydrolysis by lysates from normal fibroblasts ([4]; lysates from three normal fibroblast lines): hydrolysed rapidly
